Activity calls are given as the source filed them. No cut-off for these calls is given here.
Key:
[1] = target: T1, Nuclear factor erythroid 2-related factor 2 (Rattus norvegicus) (UniProt O54968); test: Induction of NRF2/ARE enhancer activity rat PC12 cells transfected with ARE-firefly luciferase reporter gene at 10 uM after 24 hrs by luciferase assay; assay type: functional, cell-based; conditions: PC-12
T1 sequence (whole entry): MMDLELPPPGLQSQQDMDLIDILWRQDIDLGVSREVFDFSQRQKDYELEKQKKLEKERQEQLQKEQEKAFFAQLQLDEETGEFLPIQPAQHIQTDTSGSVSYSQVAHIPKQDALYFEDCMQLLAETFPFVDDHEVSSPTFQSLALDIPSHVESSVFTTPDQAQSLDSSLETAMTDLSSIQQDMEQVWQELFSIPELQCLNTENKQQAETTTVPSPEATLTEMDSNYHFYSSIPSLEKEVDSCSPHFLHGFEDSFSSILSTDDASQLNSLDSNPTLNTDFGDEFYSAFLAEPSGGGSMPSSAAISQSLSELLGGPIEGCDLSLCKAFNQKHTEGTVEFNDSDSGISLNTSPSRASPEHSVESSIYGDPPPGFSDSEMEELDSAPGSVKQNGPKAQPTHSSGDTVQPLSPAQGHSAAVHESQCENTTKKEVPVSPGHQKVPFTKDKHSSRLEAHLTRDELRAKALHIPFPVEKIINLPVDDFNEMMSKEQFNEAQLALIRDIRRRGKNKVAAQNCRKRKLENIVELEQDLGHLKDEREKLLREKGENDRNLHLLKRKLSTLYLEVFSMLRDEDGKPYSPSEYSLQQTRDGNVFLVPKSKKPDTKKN

[2] = target: T1, Nuclear factor erythroid 2-related factor 2 (Rattus norvegicus); test: Effect on Nrf2 protein in rat PC12 cell cytoplasmic fraction at 10 uM up to 6 hrs by Western blot analysis; assay type: functional, cell-based; conditions: PC-12
[3] = target: T1, Nuclear factor erythroid 2-related factor 2 (Rattus norvegicus); test: Activation of Nrf2/ARE in rat PC12 cells assessed as effect on HO-1 protein level at 10 uM after 24 hrs by Western blot analysis; assay type: functional, cell-based; conditions: PC-12
[4] = target: T1, Nuclear factor erythroid 2-related factor 2 (Rattus norvegicus); test: Activation of Nrf2/ARE in rat PC12 cells assessed as inhibition of H2O2-induced oxidative stress by measuring cell viability pretreated with 10 uM for 6 hrs in presence of HO-1 inhibitor Zn-protoporphyrin; assay type: functional, cell-based; conditions: PC-12
[5] = target: T1, Nuclear factor erythroid 2-related factor 2 (Rattus norvegicus); test: Induction of nuclear translocation of Nrf2 in rat PC12 cells at 10 uM after 6 hrs by Western blot analysis; assay type: functional, cell-based; conditions: PC-12
[6] = target: T1, Nuclear factor erythroid 2-related factor 2 (Rattus norvegicus); test: Activation of Nrf2/ARE in rat PC12 cells assessed as upregulation of HO-1 protein expression at 1 to 10 uM after 12 hrs by Western blot analysis; assay type: functional, cell-based; conditions: PC-12
PC-12 [7] = test: Neuroprotective activity against H2O2-induced oxidative stress in rat PC12 cells assessed as cell viability pretreated with 10 uM for 6 hrs measured before inducer addition; assay type: functional; conditions: read-out: Activity
[8] = target: Mitogen-activated protein kinase 3 (Rattus norvegicus) (UniProt P21708); test: Phosphorylation of ERK1 in rat PC12 cells at 10 uM after 30 mins by Western blot analysis; assay type: cell-based; conditions: PC-12
PC-12 [9] = test: Phosphorylation of p38 kinase in rat PC12 cells at 10 uM up to 120 mins by Western blot analysis; assay type: cell-based
PC-12 [10] = test: Neuroprotective activity against H2O2-induced oxidative stress in rat PC12 cells assessed as cell viability pretreated with 2 uM for 6 hrs measured before inducer addition; assay type: functional; conditions: read-out: Activity
PC-12 [11] = test: Increase in intracellular ROS production in rat PC12 cells at 10 uM after 6 hrs by CM-H2-DCFDA staining-based fluorescence assay; assay type: functional, cell-based
[12] = target: Mitogen-activated protein kinase 1 (Rattus norvegicus) (UniProt P63086); test: Phosphorylation of ERK2 in rat PC12 cells at 10 uM after 30 mins by Western blot analysis; assay type: cell-based; conditions: PC-12
[13] = target: T1, Nuclear factor erythroid 2-related factor 2 (Rattus norvegicus); test: Activation of Nrf2/ARE in rat PC12 cells assessed as upregulation of HO-1 protein expression at 10 uM after 6 hrs by Western blot analysis; assay type: functional, cell-based; conditions: PC-12
PC-12 [14] = test: Neuroprotective activity against H2O2-induced oxidative stress in rat PC12 cells expressing dominant-negative Nrf2 mutant assessed as cell viability pretreated with 10 uM for 6 hrs; assay type: functional, cell-based
PC-12 [15] = test: Increase in intracellular ROS production in rat PC12 cells at 10 uM up to 1 hr by CM-H2-DCFDA staining-based fluorescence assay; assay type: functional, cell-based
PC-12 [16] = test: Increase in intracellular ROS production in rat PC12 cells assessed as NRF2-mediated HO-1 induction at 10 uM after 24 hrs by Western blot analysis; assay type: functional, cell-based
PC-12 [17] = test: Increase in intracellular ROS production in rat PC12 cells assessed as NRF2-mediated HO-1 induction at 10 uM after 24 hrs pretreated with N-acetylcysteine for 1 hr before compound addition by Western blot analysis; assay type: functional, cell-based
[18] = target: T1, Nuclear factor erythroid 2-related factor 2 (Rattus norvegicus); test: Activation of Nrf2/ARE in rat PC12 cells assessed as induction of NQO-1 protein expression by Western blot analysis; assay type: functional, cell-based; conditions: PC-12
PC-12 [19] = test: Increase in intracellular ROS production in rat PC12 cells assessed as induction of p38 phosphorylation at 10 uM after 1 hr by Western blot analysis; assay type: functional, cell-based
PC-12 [20] = test: Increase in intracellular ROS production in rat PC12 cells assessed as induction of p38 phosphorylation at 10 uM after 1 hr pretreated with N-acetylcysteine for 1 hr before compound addition by Western blot analysis; assay type: functional, cell-based
PC-12 [21] = test: Increase in intracellular ROS production in rat PC12 cells at 10 uM after 0.5 hr by CM-H2-DCFDA staining-based fluorescence assay; assay type: functional, cell-based
[22] = target: T1, Nuclear factor erythroid 2-related factor 2 (Rattus norvegicus); test: Activation of Nrf2/ARE in rat PC12 cells assessed as upregulation of HO-1 mRNA expression at 10 uM after 6 hrs by RT-PCR; assay type: functional, cell-based; conditions: PC-12
[23] = target: T1, Nuclear factor erythroid 2-related factor 2 (Rattus norvegicus); test: Activation of Nrf2/ARE in rat PC12 cells assessed as induction of GCSc protein expression at 10 uM by Western blot analysis; assay type: functional, cell-based; conditions: PC-12
PC-12 [24] = test: Phosphorylation of JNK in rat PC12 cells at 10 uM up to 120 mins by Western blot analysis; assay type: cell-based
[25] = target: T1, Nuclear factor erythroid 2-related factor 2 (Rattus norvegicus); test: Induction of nuclear translocation of Nrf2 in rat PC12 cells at 10 uM after 1 hr by Western blot analysis; assay type: functional, cell-based; conditions: PC-12
[26] = target: T1, Nuclear factor erythroid 2-related factor 2 (Rattus norvegicus); test: Activation of Nrf2/ARE in rat PC12 cells assessed as upregulation of HO-1 protein expression at 10 uM after 12 hrs by Western blot analysis; assay type: functional, cell-based; conditions: PC-12
PC-12 [27] = test: Neuroprotective activity against H2O2-induced oxidative stress in rat PC12 cells assessed as cell viability pretreated with 5 uM for 6 hrs measured before inducer addition; assay type: functional; conditions: read-out: Activity

Chain of Mitogen-activated protein kinase 1 (Rattus norvegicus) (P63086 whole entry): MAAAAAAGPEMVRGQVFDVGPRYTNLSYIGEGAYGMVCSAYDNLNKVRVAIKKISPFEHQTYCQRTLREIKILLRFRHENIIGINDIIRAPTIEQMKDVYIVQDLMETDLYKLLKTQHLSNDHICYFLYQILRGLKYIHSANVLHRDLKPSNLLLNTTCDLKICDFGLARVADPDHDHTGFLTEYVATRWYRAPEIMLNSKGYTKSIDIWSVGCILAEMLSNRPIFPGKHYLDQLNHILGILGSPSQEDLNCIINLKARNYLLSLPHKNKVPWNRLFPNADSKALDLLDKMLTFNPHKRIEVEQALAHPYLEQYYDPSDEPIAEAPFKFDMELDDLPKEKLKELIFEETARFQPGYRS
Chain of Mitogen-activated protein kinase 3 (Rattus norvegicus) (P21708 whole entry): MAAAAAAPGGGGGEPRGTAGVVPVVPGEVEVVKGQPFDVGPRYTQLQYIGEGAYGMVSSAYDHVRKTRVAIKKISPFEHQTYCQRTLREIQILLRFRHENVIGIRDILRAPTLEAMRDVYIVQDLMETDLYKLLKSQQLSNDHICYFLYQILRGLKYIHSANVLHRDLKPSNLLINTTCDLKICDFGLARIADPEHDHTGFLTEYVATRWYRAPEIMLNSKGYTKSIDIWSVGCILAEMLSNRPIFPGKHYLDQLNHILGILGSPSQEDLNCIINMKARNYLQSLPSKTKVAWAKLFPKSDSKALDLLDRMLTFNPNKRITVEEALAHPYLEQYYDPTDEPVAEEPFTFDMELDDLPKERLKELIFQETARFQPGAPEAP

COc1cc(C2OC[C@@H]3C(c4ccc5c(c4)OCO5)OC[C@H]23)ccc1O (mixture of isomers)
Activity [1]: inactive

Oc1ccc([C@H]2OC[C@H]3[C@@H]2CO[C@@H]3c2ccc(O)c(O)c2)cc1O
Activity [1]: Active

c1cc2c(cc1[C@H]1OC[C@H]3[C@@H]1CO[C@H]3c1ccc3c(c1)OCO3)OCO2
Activity [1]: inactive

Oc1ccc([C@H]2OC[C@H]3[C@@H]2CO[C@@H]3c2ccc3c(c2)OCO3)cc1O
Activity [2]: inactive | Activity [3]: inactive | Activity [4]: inactive | Activity [5]: Active | Activity [6]: Dose-dependent effect | viability at 10 µM (PC-12 [7]): 82% | Activity [8]: Active | Activity (PC-12 [9]): Active | viability at 2 µM (PC-12 [10]): 52% | Activity (PC-12 [11]): inactive | Activity [12]: Active | Activity [13]: Active | Activity (PC-12 [14]): inactive | Activity (PC-12 [15]): Active | fold change (FC) [1]: 2 | Activity (PC-12 [16]): Active | Activity (PC-12 [17]): inactive | Activity [18]: Active | Activity (PC-12 [19]): Active | Activity (PC-12 [20]): inactive | Activity (PC-12 [21]): Active | fold change (FC) [22]: 6 | Activity [23]: Active | Activity (PC-12 [24]): Active | Activity [25]: Active | Activity [26]: Active | viability at 5 µM (PC-12 [27]): 67%

c1cc2c(cc1[C@H]1OC[C@H]3[C@@H]1CO[C@@H]3c1ccc3c(c1)OCO3)OCO2
Activity [1]: inactive

COc1cc([C@H]2OC[C@H]3[C@@H]2CO[C@@H]3c2ccc3c(c2)OCO3)ccc1O
Activity [1]: inactive

Oc1ccc(C2OC[C@@H]3C(c4ccc5c(c4)OCO5)OC[C@H]23)cc1O (some centres undefined)
fold change (FC) [1]: 2

Oc1ccc([C@H]2OC[C@H]3[C@@H]2CO[C@H]3c2ccc(O)c(O)c2)cc1O
Activity [1]: inactive

Reference: ChEMBL document CHEMBL1687931, “Involvement of heme oxygenase-1 induction via Nrf2/ARE activation in protection against H2O2-induced PC12 cell death by a metabolite of sesamin contained in sesame seeds” (2011)
